These results are taken from patent US8383597B2, “G proteins in tumor growth and angiogenesis” (Cornell Research Foundation, Inc., priority 2006, dated 2013).

“Also recorded” adds a separate entry of the source. d = 2'-deoxy (DNA); r = 2'-OH (RNA)

Data set [1] deals with mouse Gα13. Kind of data set: Western blot of Gα13 protein level in SVEC4-10 endothelial cells after RNA interference. The format is cell-based. Conditions: SVEC4-10 cells, Western blot (FIG. 9A). Here is the method: (§1) RNA Interference: RNA interference was performed with Qiagen's 2-For-Silencing siRNA Duplexes. Cells were plated in 6-well plates the day before transfection. 2.5 μg siRNA were diluted in 100 μL buffer EC-R (Qiagen). 7.5 μL RNAiFect transfection reagent (Qiagen) were added to form complexes. After incubation for 15 minutes at room temperature, the complexes were added to the cells. Two days later, the cells were again transfected with the same amount of siRNA. Cells were assayed after three more days' incubation. The sequences for Gα13 siRNA oligonucleotides were r(GUA CGA CUU UGA AAU UAA A)dTdT (SEQ ID NO: 6) for the sense strand and r(UUU AAU UUC AAA GUC GUA C)dTdC (SEQ ID NO: 7) for the antisense strand. The sequences for the second pair of oligonucleotides used in the interference assay (data not shown) were r(GGG UGA GUC UGU AAA GUA U)dTdT (SEQ ID NO: 8) for the sense strand and r(AUA CUU UAC AGA CUC ACC C)dAdG (SEQ ID NO: 9) for the antisense strand. The control siRNA oligonucleotides were supplied by Qiagen.

Data set [2] relates to Gα12. Kind of data set: Western blot of Gα12 protein level in MEF cells after RNA interference. The format is cell-based, mouse. Conditions: siRNA transfected MEF cells, Western blot (FIG. 3C). Here is the method: as §1
Background: A western blot detects proteins with antibodies after separation by electrophoresis.

Data set [3] concerns MEF cells. Kind of data set: Wound healing assay, siRNA-treated MEF cells. The class given is cell-based, mouse. Particulars: PDGF stimulation (FIG. 3E). As to the method: Wound Healing Assay: Wild type and Gα12^−/−Gα13^−/− MEF cells isolated from E8.0 Gα12^−/−Gα13^−/− embryos (Gu et al., Proc Natl Acad Sci USA 99: 9352-9357 (2002)) in Dulbecco's Modified Eagle Medium (DMEM) (Invitrogen) containing 10% FBS were seeded into wells of 24-multiwell plates (Becton-Dickinson) (Shan et al., Proc Natl Acad Sci USA 102: 3772-3776 (2005); Yang and Huang, J Biol Chem 280: 27130-27137 (2005)). After they grew to confluency, wounds were made with sterile pipet tips. Cells were washed with Phosphate Buffered Saline (PBS) and refreshed with medium containing 10% fetal bovine serum (FBS) or 20 ng/mL platelet-derived growth factor (PDGF-BB). After overnight incubation at 37° C., cells were fixed and photographed. MEF cells were transfected with Lipofectamine-2000 (transfection efficiency was 10 to 30%) (Invitrogen).
(§2) RNA Interference: RNA interference was performed with Qiagen's 2-For-Silencing siRNA Duplexes. Cells were plated in 6-well plates the day before transfection. 2.5 μg siRNA were diluted in 100 μL buffer EC-R (Qiagen). 7.5 μL RNAiFect transfection reagent (Qiagen) were added to form complexes. After incubation for 15 minutes at room temperature, the complexes were added to the cells. Two days later, the cells were again transfected with the same amount of siRNA. Cells were assayed after three more days' incubation. […]

The test system of data set [4] is mouse endothelial SVEC4-10 cells. Kind of data set: Chamber assay of VEGF-induced migration of SVEC4-10 endothelial cells. The class given is cell-based. Particulars: chamber assay (FIG. 9B). As to the method: Chamber Cell Migration Assay: Cell migration was assayed in Boyden chambers [8.0 μm pore size polyethylene terephthalate membrane, FALCON cell culture insert (Becton-Dickinson)] (Shan et al., Proc Natl Acad Sci USA 102: 3772-3776 (2005); Yang and Huang, J Biol Chem 280: 27130-27137 (2005)). Cells were first trypsinized and counted. […] Transwells were incubated for 4-6 hours at 37° C. Cells on the inside of the transwell inserts were removed with a cotton swab, and cells on the underside of the insert were fixed and stained. Photographs of three random fields were taken, and the number of cells counted to determine the average number of cells that had transmigrated.
as §1, with “The sequences for the second pair of oligonucleotides used in the interference assay (data not shown) were r(GGG UGA GUC UGU AAA GUA U)dTdT (SEQ ID NO: 8) for the sense strand and r(AUA CUU UAC AGA CUC ACC C)dAdG (SEQ ID NO: 9) for the antisense strand. The control siRNA oligonucleotides were supplied by Qiagen.” left out

Data set [5] concerns tubulin. Kind of data set: Western blot of tubulin protein level in MEF cells after RNA interference. Conditions: siRNA transfected MEF cells, Western blot (FIG. 3C). The class given is cell-based, mouse. Here is the method: as §1
For data set [6], the system named is mouse Gα13. Kind of data set: Western blot of Gα13 protein level in MEF cells after RNA interference. Particulars: wild-type MEF cells, siRNA transfection, Western blot (FIG. 3C). The format is cell-based. As to the method: as §1
For data set [7], the system named is MEF cells. Kind of data set: Chamber cell migration assay, siRNA-treated MEF cells. The class given is cell-based, mouse. Here is the method: Chamber Cell Migration Assay: Cell migration was assayed in Boyden chambers [8.0 μm pore size polyethylene terephthalate membrane, FALCON cell culture insert (Becton-Dickinson)] (Shan et al., Proc Natl Acad Sci USA 102: 3772-3776 (2005); Yang and Huang, J Biol Chem 280: 27130-27137 (2005)). Cells were first trypsinized and counted. Then 5-10×10^4 cells in serum free medium (300 μL) were added to the upper chamber, and 500 μL of appropriate medium with 10% FBS or 20 ng/mL PDGF were added to the lower chamber. Transwells were incubated for 4-6 hours at 37° C. Cells on the inside of the transwell inserts were removed with a cotton swab, and cells on the underside of the insert were fixed and stained. Photographs of three random fields were taken, and the number of cells counted to determine the average number of cells that had transmigrated.
as §2

Data set [8] deals with Gα12. Kind of data set: Western blot of Gα12 protein level in SVEC4-10 endothelial cells after RNA interference. The class given is cell-based, mouse. Conditions: SVEC4-10 cells, Western blot (FIG. 9A). Here is the method: as §1
Data set [9] has as its system tubulin. Kind of data set: Western blot of tubulin protein level in SVEC4-10 endothelial cells after RNA interference. The format is cell-based, mouse. Particulars: SVEC4-10 cells, Western blot (FIG. 9A). Here is the method: as §1

Consider “r(GUA CGA CUU UGA AAU UAA A)dTdT (sense GUACGACUUUGAAAUUAAATT; antisense UUUAAUUUCAAAGUCGUACTC; siRNA; sugars from the 5' end r19 d2, backbone not given here) [Gα13 siRNA, siRNA duplex against mouse Gα13]”, for which the “endogenous mouse Gα13 protein level” value in the data set on mouse Gα13 [1] is reported as “reduced”. The “protein level of Gα12” value with Gα12 [2] is on record as “not changed”; in the data set with Gα12 [8], “no effect”. The “cell migratory response to PDGF stimulation, wound-healing assay” value with MEF cells [3] is “defective cell migratory response; also recorded: reduced”. Further, the “VEGF-induced endothelial cell migration” value in data set [4] is recorded as “reduced”. Besides, the results for the “protein level of tubulin” value in the data set with tubulin [5] and in the data set with tubulin [9] were “not changed” and “no effect”, respectively. Moreover, in the data set with mouse Gα13 [6], the “level of endogenous mouse Gα13 protein” value is listed as “significantly reduced”. Further, the “cell migratory response to PDGF stimulation, chamber assay” value in the data set with MEF cells [7] (PDGF stimulation (FIG. 3D)) is recorded as “defective cell migratory response”. Further, in the data set on MEF cells [7] (without PDGF (or other stimuli), data not shown), the “migration of cells without PDGF, compared with control RNAi” value is reported as “not significantly different”.
